Here are results for 24 compounds from patent US11702404B2, “GLP-1R modulating compounds” (priority 2019, dated 2023).

A short description of series [1]: Microsomal stability, human liver microsomes (predicted hepatic clearance). Conditions: predicted from in vitro microsomal stability data.
For series [2], the target named is GLP-1R (Homo sapiens, UniProt P43220). Nature of the series: GLP-1R activation: cAMP increase in CHO cells stably expressing GLP-1R. The series is classed as cell-based. Conditions: cAMP increase, CHO cells stably expressing GLP-1R, 10 point dose response, 30 minutes incubation; read-out: EC50.
Chain of GLP-1R (P43220 24-463): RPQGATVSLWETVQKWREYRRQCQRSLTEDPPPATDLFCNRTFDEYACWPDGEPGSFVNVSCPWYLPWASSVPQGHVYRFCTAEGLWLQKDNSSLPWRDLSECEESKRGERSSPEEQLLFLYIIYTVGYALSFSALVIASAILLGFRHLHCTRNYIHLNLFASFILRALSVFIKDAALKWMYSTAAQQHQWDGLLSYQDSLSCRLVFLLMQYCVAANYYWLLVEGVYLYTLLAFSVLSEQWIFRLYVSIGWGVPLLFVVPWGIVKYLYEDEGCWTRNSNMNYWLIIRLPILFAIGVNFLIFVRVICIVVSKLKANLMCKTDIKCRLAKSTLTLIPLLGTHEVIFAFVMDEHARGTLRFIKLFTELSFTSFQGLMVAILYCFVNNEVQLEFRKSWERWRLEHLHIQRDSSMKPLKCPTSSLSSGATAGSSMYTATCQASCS

pEC50: −log10 of the molar value. Some results are limits rather than exact numbers.

Turning to `COCCn1c(Cc2ccc(-c3cccc(OCc4ccc(C#N)cc4F)n3)cc2-c2cccc(OC)c2)nc2ccc(C(=O)O)cc21` [Example 188, 2-((5-(6-((4-cyano-2-fluorobenzyl)oxy)pyridin-2-yl)-3′-methoxy-[1,1′-biphenyl]-2-yl)methyl)-1-(2-methoxyethyl)-1H-benzo[d]imidazole-6-carboxylic acid], in series [1], the “Predicted Hepatic Clearance (Pred. Cl.)” value is 17.5 mL/min/kg. Besides, in series [2], the pEC50 – broadly, the negative decadic logarithm of the EC50, by convention in mol/L – was 7.43.

Consider `COCCn1c(Cc2c(F)cc(-c3cncnc3OCc3ccc(C#N)cc3F)cc2F)nc2ccc(C(=O)O)cc21` [Example 189, 2-(4-(4-((4-cyano-2-fluorobenzyl)oxy)pyrimidin-5-yl)-2,6-difluorobenzyl)-1-(2-methoxyethyl)-1H-benzo[d]imidazole-carboxylic acid], for which the “Predicted Hepatic Clearance (Pred. Cl.)” value in series [1] is 8.5 mL/min/kg. In addition, the pEC50 in series [2] was 5.52.

For the compound `COCCn1c(Cc2ccc(-c3cccc(OCc4ccc(C#N)cc4F)n3)cc2-c2cnn(C(F)F)c2)nc2ccc(C(=O)O)cc21` [Example 190, 2-(4-(6-((4-cyano-2-fluorobenzyl)oxy)pyridin-2-yl)-2-(1-(difluoromethyl)-1H-pyrazol-4-yl)benzyl)-1-(2-methoxyethyl)-1H-benzo[d]imidazole-6-carboxylic acid], the “Predicted Hepatic Clearance (Pred. Cl.)” value in series [1] was 6.83 mL/min/kg. In addition, the pEC50 in series [2] was 6.60.

Consider `COCCn1c(Cc2c(F)cc(-c3cccnc3OCc3ccccc3F)cc2F)nc2ccc(C(=O)O)cc21` [Example 192, 2-(2,6-difluoro-4-(2-((2-fluorobenzyl)oxy)pyridin-3-yl)benzyl)-1-(2-methoxyethyl)-1H-benzo[d]imidazole-carboxylic acid], for which the “Predicted Hepatic Clearance (Pred. Cl.)” value in series [1] is 13 mL/min/kg. In series [2], the pEC50 is 6.36.

On to `COCCn1c(Cc2ccc(-c3cccc(OCc4ccc(C#N)cc4F)n3)cc2-c2ccc(C#N)cc2)nc2ccc(C(=O)O)cc21` [Example 193, 2-((4′-cyano-5-(6-((4-cyano-2-fluorobenzyl)oxy)pyridin-2-yl)-[1,1′-biphenyl]-2-yl)methyl)-1-(2-methoxyethyl)-1H-benzo[d]imidazole-6-carboxylic acid], for which, in series [1], the “Predicted Hepatic Clearance (Pred. Cl.)” value was 6.83 mL/min/kg. Also, the pEC50 in series [2] is 6.88.

Regarding `N#Cc1ccc(COc2cccc(-c3ccc(Cc4nc5ccc(C(=O)O)cc5n4C[C@@H]4CCCO4)c(F)c3)n2)c(F)c1` [Example 194, (S)-2-(4-(6-((4-cyano-2-fluorobenzyl)oxy)pyridin-2-yl)-2-fluorobenzyl)-1-((tetrahydrofuran-2-yl)methyl)-1H-benzo[d]imidazole-carboxylic acid], the “Predicted Hepatic Clearance (Pred. Cl.)” value in series [1] was 4.67 mL/min/kg. In addition, the pEC50 in series [2] was 9.07.

Take `COCCn1c(Cc2ccc(-c3cccc(NCc4ccc(C#N)cc4OC)n3)cc2F)nc2ccc(C(=O)O)cc21` [Example 195]: the “Predicted Hepatic Clearance (Pred. Cl.)” value in series [1] was 9.5 mL/min/kg. Besides, the pEC50 in series [2] was 7.80.

Turning to `N#Cc1ccc(COc2cccc(-c3ccc(Cc4nc5ccc(C(=O)O)cc5n4C[C@H]4CCOC4)c(F)c3)n2)c(F)c1` [Example 196, (R)-2-(4-(6-((4-cyano-2-fluorobenzyl)oxy)pyridin-2-yl)-2-fluorobenzyl)-1-((tetrahydrofuran-3-yl)methyl)-1H-benzo[d]imidazole-carboxylic acid], the “Predicted Hepatic Clearance (Pred. Cl.)” value in series [1] is 5.83 mL/min/kg. For the same compound, in series [2], the pEC50 is 8.34.

Consider `N#Cc1ccc(COc2cccc(-c3ccc(Cc4nc5ccc(C(=O)O)cc5n4C[C@@H]4CCOC4)c(F)c3)n2)c(F)c1` [Example 197, (S)-2-(4-(6-((4-cyano-2-fluorobenzyl)oxy)pyridin-2-yl)-2-fluorobenzyl)-1-((tetrahydrofuran-3-yl)methyl)-1H-benzo[d]imidazole-carboxylic acid], for which the “Predicted Hepatic Clearance (Pred. Cl.)” value in series [1] was 6 mL/min/kg. For the same compound, the pEC50 in series [2] was 8.11.

For `N#Cc1ccc(COc2cccc(-c3ccc(Cc4nc5ccc(C(=O)O)cc5n4C[C@H]4CCCO4)c(F)c3)n2)c(F)c1` [Example 198, (R)-2-(4-(6-((4-cyano-2-fluorobenzyl)oxy)pyridin-2-yl)-2-fluorobenzyl)-1-((tetrahydrofuran-2-yl)methyl)-1H-benzo[d]imidazole-carboxylic acid], the “Predicted Hepatic Clearance (Pred. Cl.)” value in series [1] is 5.17 mL/min/kg. Besides, the pEC50 in series [2] was 8.06.

Turning to `N#Cc1ccc(COc2ncccc2-c2cc(F)c(Cc3nc4ccc(C(=O)O)cc4n3CC3(CF)CC3)c(F)c2)c(F)c1` [Example 199, 2-(4-(2-((4-cyano-2-fluorobenzyl)oxy)pyridin-3-yl)-2,6-difluorobenzyl)-1-((1-(fluoromethyl)cyclopropyl)methyl)-1H-benzo[d]imidazole-carboxylic acid], the “Predicted Hepatic Clearance (Pred. Cl.)” value in series [1] was under 1.83 mL/min/kg. The pEC50 in series [2] was 7.68.

For `COCCn1c(Cc2ccc(-c3cccc(OCc4ccc(C#N)cc4F)n3)cc2F)nc2ccc(C(=O)O)nc21` [Example 200, 2-(4-(6-((4-cyano-2-fluorobenzyl)oxy)pyridin-2-yl)-2-fluorobenzyl)-3-(2-methoxyethyl)-3H-imidazo[4,5-b]pyridine-5-carboxylic acid], the “Predicted Hepatic Clearance (Pred. Cl.)” value in series [1] was 2.83 mL/min/kg. For the same compound, the pEC50 in series [2] is 7.75.

Turning to `COCCn1c(Cc2ccc(-c3cccc(OCc4ccc(C#N)cc4F)n3)cc2F)nc2cccc(C(=O)O)c21` [Example 201, 2-(4-(6-((4-cyano-2-fluorobenzyl)oxy)pyridin-2-yl)-2-fluorobenzyl)-1-(2-methoxyethyl)-1H-benzo[d]imidazole-7-carboxylic acid], the “Predicted Hepatic Clearance (Pred. Cl.)” value in series [1] was 3 mL/min/kg. The pEC50 in series [2] was 5.35.

With `COCCn1c(Cc2cc(F)c(-c3nc(OCc4ccc(C#N)cc4F)ccc3F)cc2F)nc2ccc(C(=O)O)cc21` [Example 202, 2-(4-(6-((4-cyano-2-fluorobenzyl)oxy)-3-fluoropyridin-2-yl)-2,5-difluorobenzyl)-1-(2-methoxyethyl)-1H-benzo[d]imidazole-carboxylic acid], in series [1], the “Predicted Hepatic Clearance (Pred. Cl.)” value is 5.25 mL/min/kg. In series [2], the pEC50 is 8.48.

For `N#Cc1ccc(COc2cccc(-c3ccc(Cc4nc5ccc(C(=O)O)cc5n4C4COC4)c(F)c3)n2)c(F)c1` [Example 203, 2-(4-(6-((4-cyano-2-fluorobenzyl)oxy)pyridin-2-yl)-2-fluorobenzyl)-1-(oxetan-3-yl)-1H-benzo[d]imidazole-6-carboxylic acid], the “Predicted Hepatic Clearance (Pred. Cl.)” value in series [1] is 4.83 mL/min/kg. Further, the pEC50 in series [2] was 6.38.

Regarding `N#Cc1ccc(COc2cccc(-c3ccc(Cc4nc5ccc(C(=O)O)cc5n4[C@H]4CCOC4)c(F)c3)n2)c(F)c1` [Example 204, (S)-2-(4-(6-((4-cyano-2-fluorobenzyl)oxy)pyridin-2-yl)-2-fluorobenzyl)-1-(tetrahydrofuran-3-yl)-1H-benzo[d]imidazole-6-carboxylic acid], in series [1], the “Predicted Hepatic Clearance (Pred. Cl.)” value is 5.33 mL/min/kg. Moreover, the pEC50 in series [2] is 8.13.

`N#Cc1ccc(COc2cccc(-c3cc(F)c(Cc4nc5cc(F)c(C(=O)O)cc5n4CC4(CF)CC4)cc3F)n2)c(F)c1` [Example 205, 2-(4-(6-((4-cyano-2-fluorobenzyl)oxy)pyridin-2-yl)-2,5-difluorobenzyl)-5-fluoro-1-((1-(fluoromethyl)cyclopropyl)methyl)-1H-benzo[d]imidazole-6-carboxylic acid]: in series [1], the “Predicted Hepatic Clearance (Pred. Cl.)” value was 5 mL/min/kg. For the same compound, the pEC50 in series [2] is 8.49.

Turning to `N#Cc1ccc(COc2cccc(-c3ccc(Cc4nc5cc(F)c(C(=O)O)cc5n4C[C@@H]4CCO4)c(F)c3)n2)c(F)c1` [Example 206], the “Predicted Hepatic Clearance (Pred. Cl.)” value in series [1] is 3.5 mL/min/kg. Besides, the negative-log EC50 (pEC50) in series [2] was 9.07.

For the compound `COCCn1c(Cc2ccc(-c3cccc(OCc4ccc(C#N)cc4F)n3)cc2F)nc2cc(F)c(C(=O)O)cc21` [Example 207, 2-(4-(6-((4-cyano-2-fluorobenzyl)oxy)pyridin-2-yl)-2-fluorobenzyl)-5-fluoro-1-(2-methoxyethyl)-1H-benzo[d]imidazole-6-carboxylic acid], the “Predicted Hepatic Clearance (Pred. Cl.)” value in series [1] was 6 mL/min/kg. For the same compound, in series [2], the pEC50 was 7.45.

On to `COCCn1c(Cc2cc(F)c(-c3cccc(OCc4ccc(C#N)cc4F)n3)cc2F)nc2ccc(C(=O)O)nc21` [Example 208, 2-(4-(6-((4-cyano-2-fluorobenzyl)oxy)pyridin-2-yl)-2,5-difluorobenzyl)-3-(2-methoxyethyl)-3H-imidazo[4,5-b]pyridine-5-carboxylic acid], for which the “Predicted Hepatic Clearance (Pred. Cl.)” value in series [1] was 3.83 mL/min/kg. For the same compound, the pEC50 in series [2] is 8.33.

With `N#Cc1ccc(COc2cccc(-c3ccc(Cc4nc5ccc(C(=O)O)cc5n4C4(CF)CC4)cc3F)n2)c(F)c1` [Example 209, 2-(4-(6-((4-cyano-2-fluorobenzyl)oxy)pyridin-2-yl)-3-fluorobenzyl)-1-(1-(fluoromethyl)cyclopropyl)-1H-benzo[d]imidazole-6-carboxylic acid], the “Predicted Hepatic Clearance (Pred. Cl.)” value in series [1] is 8.5 mL/min/kg. Further, in series [2], the pEC50 is 7.31.

As to `COCCn1c(Cc2ccc(-c3cccc(OCc4ccc(C#N)cc4F)n3)cc2F)nc2ccc(C3(C(=O)O)CC3)cc21` [Example 210, 1-(2-(4-(6-((4-cyano-2-fluorobenzyl)oxy)pyridin-2-yl)-2-fluorobenzyl)-1-(2-methoxyethyl)-1H-benzo[d]imidazol-6-yl)cyclopropane-1-carboxylic acid], the “Predicted Hepatic Clearance (Pred. Cl.)” value in series [1] is 4.42 mL/min/kg. Also, the negative-log EC50 (pEC50) in series [2] is at most 6.00.

With `COCCn1c(Cc2cc(F)c(-c3cccnc3OCc3ccc(C#N)cc3F)cc2F)nc2ccc(C(=O)O)cc21` [Example 211, 2-(4-(2-((4-cyano-2-fluorobenzyl)oxy)pyridin-3-yl)-2,5-difluorobenzyl)-1-(2-methoxyethyl)-1H-benzo[d]imidazole-carboxylic acid], the “Predicted Hepatic Clearance (Pred. Cl.)” value in series [1] was 8.17 mL/min/kg. Further, the negative-log EC50 (pEC50) in series [2] is 6.90.

For `COCCn1c(Cc2ccc(-c3cccc(OCC(=O)c4ccc(Cl)cc4)n3)cc2F)nc2ccc(C(=O)O)cc21` [Example 212, 2-(4-(6-(2-(4-Chlorophenyl)-2-oxoethoxy)pyridin-2-yl)-2-fluorobenzyl)-1-(2-methoxyethyl)-1H-benzo[d]imidazole-6-carboxylic acid], in series [1], the “Predicted Hepatic Clearance (Pred. Cl.)” value is under 1.83 mL/min/kg. The pEC50 in series [2] is 7.10.
